Data as given in patent publication US20140329754A1, “COMPOSITIONS AND METHODS FOR TREATING MYELODYSPLASTIC SYNDROME” (Telik, Inc., priority 2010, published 2014).
Where a name gives a salt, the structure may show the parent alone.

Legend:
MDS patients = conditions: patients administered lenalidomide; reported; cited from earlier work
[1] = system: Patients with an International Prognostic System Score (IPSS) Low to Intermediate-1 Risk Myelodysplastic syndrome; experiment: Clinical study of ezatiostat hydrochloride tablets in IPSS low to intermediate-1 risk MDS patients: hematologic improvement (efficacy); format: in vivo, human; conditions: for Duration of HI-E Response, # Censored / Duration of HI-E Response, # Event: number of responders; for significant RBC transfusion reduction, patients: five of 11 patients; for HI-E Response Rate (95% Confidence Interval): hydrochloride
[2] = Same clinical study: non-hematologic adverse events (safety, all patients treated); format: in vivo, human
Protocol: Eighty-seven patients were randomized and treated at 23 investigational sites. After initial dose ranging in 14 patients, two dose levels were selected for further study. Subsequently, 37 patients were treated at 3 grams daily for two weeks followed by a one week rest period, and 36 patients were treated at 2 grams daily for three weeks followed by a one week rest period. The data on these 73 patients was pooled for this preliminary analysis.
The safety data is based on all patients treated.

[3] = 1 g b.i.d. 3 weeks on & 1 week off
[4] = 1.5 g b.i.d. 2 weeks on & 1 week off

## Nc1cccc2c1CN(C1CCC(=O)NC1=O)C2=O (stereo not drawn) [lenalidomide, 3-(4-amino-l-oxoisoindolin-2-yl)piperidine-2,6-dione]
MDS patients
  patients exhibiting clinically recognizable response: about 50%

## CCOC(=O)[C@@H](N)CCC(=O)N[C@@H](CSCc1ccccc1)C(=O)N[C@@H](C(=O)OCC)c1ccccc1 [Telintra, ezatiostat hydrochloride]
[1]; [3]
  Duration of HI-E Response, # Censored, percent of responders: (66.7%)
  Duration of HI-E Response, # Event, percent of responders: (33.3%)
  Duration of HI-E Response, Median (95% CI): 46.1 Weeks
  Duration of HI-E Response, Min, Max: 2.4-46.1 Weeks
  Duration of HI-E Response, # Censored: 4
  Duration of HI-E Response, # Event: 2
[1]; 1 g b.i.d. 3 weeks on & 1 week off (N = 31)
  Time to HI-E Response, Median: 8.4 Weeks
[1]; 1 g b.i.d. 3 weeks on & 1 week off (N = 31), 6 responders
  Time to HI-E Response, Mean: 8.9 Weeks
[1]; [4]
  Duration of HI-E Response, # Censored, percent of responders: (28.6%)
  Duration of HI-E Response, # Event, percent of responders: (71.4%)
  Duration of HI-E Response, Median (95% CI): 18.4 Weeks
  Duration of HI-E Response, Min, Max: 1.9-51.0 Weeks
  Duration of HI-E Response, # Censored: 2
  Duration of HI-E Response, # Event: 5
[1]; 1.5 g b.i.d. 2 weeks on & 1 week off (N = 29)
  Time to HI-E Response, Median: 8.1 Weeks
[1]; 1.5 g b.i.d. 2 weeks on & 1 week off (N = 29), 7 responders
  Time to HI-E Response, Mean: 8.4 Weeks
[1]; 2 of 19 patients, 95% CI 1.3-33.1
  bilineage HI rate (HI-E and HI-N): 11%
[1]; 3 of 20 patients, 95% CI 3.2-37.9
  Hematologic Improvement-Neutrophil (HI-N) rate: 15%
[1]; 4 of 38 RBC transfusion-dependent patients
  RBC transfusion independence, patients: 11%
[1]; 11 of 38 RBC transfusion-dependent patients
  clinically significant RBC transfusion reduction (reduction of 4U/8 weeks, IWG 2006), patients: 29%
[1]; 13 of 60 evaluable patients, pooled 3 g/day and 2 g/day schedules, 95% CI 12.1-34.2
  overall Hematologic Improvement-Erythroid (HI-E) rate: 22%
[1]; in responders
  median hemoglobin level increase: 2.0 gram/dL
[1]; lenalidomide pre-treated vs not pre-treated patients
  increase in response rate: over 100%
[1]; logistic regression analysis
  effect of prior Revlimid treatment on HI-E response: enhance HI-E response
[1]; no prior Revlimid, no prior DMTI, 6 of 23 patients, 95% CI 10.2%-48.4%
  HI-E rate: 26%
[1]; no prior Revlimid, no prior DMTI
  significant RBC transfusion reduction, patients: 45%
[1]; no prior Revlimid, prior DMTI, 0 of 17 patients, 95% CI 0%-19.5%
  HI-E rate: 0%
[1]; of the four patients with del 5q minus, one had failed prior Revlimid
  complete cytogenetic response (number of patients): two
[1]; one patient
  duration of complete remission following discontinuation of therapy: more than 12 months
[1]; patients with no prior Revlimid (lenalidomide) treatment, N=27, efficacy evaluable population
  HI-E Response Rate (95% Confidence Interval): about 22%
[1]; patients with prior Revlimid (lenalidomide) treatment, N=13, efficacy evaluable population
  HI-E Response Rate (95% Confidence Interval): about 46%
[1]; pooled schedules
  median duration of HI-E response: 46 weeks
  range of duration of HI-E response: 2-51 weeks
[1]; prior DMTI treatment, logistic regression, p=0.023
  change in odds for a HI-E response: five-fold decrease
[1]; prior Revlimid, no prior DMTI, 6 of 15 patients, 95% CI 16.3%-67.7%
  HI-E rate: 40%
[1]; prior Revlimid, no prior DMTI
  significant RBC transfusion reduction, patients: 45%
[1]; prior Revlimid, no prior DMTI, three of 11 patients
  transfusion independence, patients: 27%
[1]; whole study
  cytogenetic complete responses (number of patients): three
[2]; all patients treated
  diarrhea, Grade 1 adverse event incidence: 25%
  diarrhea, Grade 2 adverse event incidence: 7%
  diarrhea, Grade 3 adverse event incidence: 3%
  nausea, Grade 1 adverse event incidence: 45%
  nausea, Grade 2 adverse event incidence: 16%
  nausea, Grade 3 adverse event incidence: 1%
  vomiting, Grade 1 adverse event incidence: 30%
  vomiting, Grade 2 adverse event incidence: 12%
  vomiting, Grade 3 adverse event incidence: 2%
[2]; patients with prior DMTI treatment
  incidence of GI AEs with prior DMTI treatment: increased incidence of GI AEs
